This data set relates to acute GVHD in F1 hybrid BN/Lew rats. Put plainly: GVHD animal experiment: irradiated rats after transplantation of bone marrow cells and T lymphocytes. Type of data set: in vivo. The settings on record: methotrexate-albumin 2 mg/kg i.p. day 0, 4, 8, 12, MTX at equieffective doses. The source says: Animal experiments: (authorization No. LVL M-V310-4/7221.3-1.2-015/03 Landesveterinäramt Mecklenburg-Vorpommern Rostock)
Dr. M. Freund in Rostock University clinic under the direction of PD Dr G. Hartung and Dr D. Wolff. These entailed 20 female F1 hybrid BN/Lew rats receiving whole-body irradiation with 7.5 Gy (n=10) or 9 Gy (n=10) and then transplantation of 40 million bone marrow cells and 15 million T lymphocytes from female Lew rats.

Each structure is given as a SMILES string.

Take `CN(Cc1cnc2nc(N)nc(N)c2n1)c1ccc(C(=O)N[C@@H](CCC(=O)O)C(=O)O)cc1` [MTX, 4-amino-4-deoxy-10-methylfolic acid]: the side effects result is “distinct side effect”.

The record behind these values is patent US7781406B2, “Production and use of the methotrexate-albumin conjugate as an immunosuppressive agent in GVHD” (Albupharm Heidelberg GmbH & Co. KG, priority 2004, dated 2010).
